These results are taken from patent US9549914B2, “Treatment of human cytomegalovirus by modulating Wnt” (priority 2014, dated 2017).

The term EC50 denotes the concentration that produces a half-maximal response.

A short description of data set [1]: in vitro. Conditions: human.
Experimental: (§1) Cell viability was determined using a colorimetric MTT cell proliferation assay following manufacturer's instructions (Sigma-Aldrich, St. Louis, Mo.). HFFs were treated with varying concentrations of monensin, nigericin, and salinomycin and incubated at 37° C. for 3 days. After the addition of 20 μl/well of MTT (3-(4,5-Dimethyl-2-thiazolyl)-2,5-diphenyl-2H-tetrazolim bromide) (5 mg/ml in PBS), and shaking at 150 rpm for 5 minutes the plates were incubated at 37° C. for 3 hours. Conversion of yellow solution into dark blue formazan by mitochondrial dehydrogenases of living cells was quantified by measuring absorbance at 570 nm. Viable cells in culture medium containing vehicle alone (0.1% DMSO) were referred to as 100% cell viability. For each cell type used for virus infection and drug treatment, the MTT assay was performed at the same time points as the antiviral assay.
The nature of data set [2]: in vitro. To be noted: human. This is another data set of the same source.
Experimental: as §1
Data set [3] concerns GCV-resistant HCMV strain (UL97 mutation H520Q). In words: GCV-resistant HCMV strain, virus DNA yield by real-time PCR. It counts as cell-based, Human Cytomegalovirus (HCMV). Conditions: Human betaherpesvirus 5, read-out: EC50 against GCV-resistant HCMV strain.
Experimental: HFFs cells were infected with a GCV-resistant HCMV and treated with monensin (0.01 μM-1 μM), nigericin (0.005 μM-0.5 μM), salinomycin (0.03 μM-10 μM) or GCV (1 μM-30 μM). Virus DNA yield was quantified by real-time PCR in supernatants of infected cells 96 hpi. Data represent mean values (±SD) of triplicate determinations from two independent experiments.
The quantitative CMV real-time PCR assay is based on detection of a 151 bp region from the highly conserved US17 gene (16). The limit of detection of the assay is 100 copies/mL (3.0 copies/reaction), and the measurable range is 2.4-8.0 log10 copies/mL. […] Quantification standards were prepared by cloning the US17 amplicon in the pCR®2.1-TOPO® plasmid vector (Invitrogen, Carlsbad, Calif.). […] Assay controls included quantified CMV AD 169 DNA (Advanced Biotechnologies Inc.) and quantified Towne CMV at 3.0 and 5.0 log10 copies/mL. Quantitative CMV data were expressed as viral DNA copies per milliliter. The real-time PCR was used for quantification of HCMV replication in cell lysates at 48 hpi, virus DNA yield in supernatants at 96 hpi and for a reversibility assay (14, 16).
A short description of data set [4]: in vitro. Conditions: human. This is another data set of the same source.
Experimental: as §1
Data set [5] has as its system HCMV. In words: Reversibility of HCMV inhibition, real-time PCR in supernatants. Format: cell-based, Human Cytomegalovirus (HCMV). To be noted: treated 1, 2 or 3 days, then fresh media; HCMV DNA in supernatants at day 6 post infection. An excerpt:
FIG. 4: Effects of monensin, nigericin, salinomycin and GCV on replication characteristics. A. Reversibility of HCMV replication: Compounds were present in HCMV-infected HFFs at the indicated intervals in days. Virus DNA was quantified by real-time PCR in supernatants at 6 days post infection. Data represent mean values (±SD) of triplicate determinations from two independent experiments. B. Inhibition of DNA replication, pp28 expression and virus DNA yield: DNA replication was quantified by real-time PCR in cells collected 48 hpi. Pp28-luciferase activity was measured in cell lysates collected at 72 hpi. Virus DNA yield was measured by real-time PCR in supernatants of infected cells collected at 96 hpi. The concentration of compounds was: 0.1 μM for monensin and nigericin, 1 μM for salinomycin and 10 μM for GCV. Data represent mean values (±SD) of triplicate determinations from two independent experiments.
The quantitative CMV real-time PCR assay is based on detection of a 151 bp region from the highly conserved US17 gene (16). The limit of detection of the assay is 100 copies/mL (3.0 copies/reaction), and the measurable range is 2.4-8.0 log10 copies/mL. The PCR was performed using a total reaction volume of 50 μL, including TaqMan 2× Universal PCR Master Mix (Applied Biosystems, Foster City, Calif.), primers (300 nM final concentration), FAM-labeled probe (200 nM final concentration), dH2O, and template (10 μl). Amplification was performed on a 7500 Real-Time PCR System (Applied Biosystems, Foster City, Calif.). PCR conditions were: 50° C. for 2 min, 95° C. for 10 min, 40 cycles of 95° C. for 15 s and 60° C. for 60 s. Quantification standards were prepared by cloning the US17 amplicon in the pCR®2.1-TOPO® plasmid vector (Invitrogen, Carlsbad, Calif.). Serial 10-fold dilutions of plasmid from 7.0 to 1.0 log10 copies/reaction were included with each assay and used to establish a standard curve. The slope and R^2 of the standard curve were −3.3±0.1 and >0.990, respectively. Assay controls included quantified CMV AD 169 DNA (Advanced Biotechnologies Inc.) and quantified Towne CMV at 3.0 and 5.0 log10 copies/mL. Quantitative CMV data were expressed as viral DNA copies per milliliter. The real-time PCR was used for quantification of HCMV replication in cell lysates at 48 hpi, virus DNA yield in supernatants at 96 hpi and for a reversibility assay (14, 16).
To test whether HCMV inhibition by monensin, nigericin and salinomycin was reversible, infected HFFs were treated for 1, 2, or 3 days followed by removal of the media containing the compounds, and adding fresh media until 6 days post infection. HCMV DNA was quantified in supernatants of infected cells at day 6 post infection by real-time PCR.
Background: Quantitative PCR measures a nucleic acid by following its amplification.

For data set [6], the system named is pp28-luciferase HCMV Towne strain. Briefly: microbe, parasite or virus in culture. It counts as cell-based, Human Cytomegalovirus (HCMV). Conditions: for SI (selectivity index): HCMV in HFFs, mean ± SD; for EC50: Human betaherpesvirus 5, read-out: EC50 (μM), anti-HCMV activity. The procedure:
The pp28-luciferase HCMV Towne strain was constructed as previously described (14). This virus expresses luciferase under the control of the late CMV gene promoter, pp28. Luciferase expression is strongly activated 48-72 hours post infection (hpi). […] A GCV-resistant HCMV strain was obtained from a patient with CMV disease. […] Human herpes virus strains were: luciferase HSV1-KOS/Dlux/oriS (15) and clinical isolates of HSV1 and HSV2. All clinical isolates were provided by the clinical virology laboratory with no identifiers that can link to a specific subject. The Johns Hopkins Office of Human Subject Research Institutional Review Board determined that this research qualified for an exemption.
Human Foreskin Fibroblasts (HFFs) passage 12-16 (ATCC, CRL-2088™) were grown in Dulbecco's Modified Eagle Medium (DMEM) containing 10% fetal bovine serum (FBS) (Gibco, Carlsbad, Calif.) in a 5% CO2 incubator at 37° C. and used for infection with HCMV or HSV at multiplicity of infection of 1 PFU/cell (MOI=1) unless otherwise specified. Following 90 minute adsorption (60 min for HSV), media was removed and cells were washed with PBS. DMEM with 4% FBS containing compounds was added to each well. For HCMV, infected, treated HFFs were collected at 72 hpi and lysates were assayed for luciferase activity using a luciferase assay kit (Promega, Madison, Wis.) on GloMax®-Multi+ Detection System (Promega) according to manufacturer's instructions.

Data set [7] concerns luciferase HSV1-KOS/Dlux/oriS. Briefly: HSV1-KOS/Dlux/oriS yield reduction assay in HFFs. It counts as cell-based. Conditions: Human alphaherpesvirus 1, 16 h, read-out: HSV1 EC50 (μM) Yield Reduction (HFFs).
For data set [8], the system named is Wnt/β-catenin signaling proteins. In words: Western blot of Wnt/β-catenin signaling proteins in HSV1-infected HFFs. It counts as cell-based, Human. To be noted: 48 hpi with HSV1-KOS (Dlux/OriS), concentrations resulting in full HCMV inhibition. The procedure:
FIG. 7: Effect of monensin, nigericin and salinomycin on expression of Wnt/β-catenin signaling proteins in non-infected and HSV1-infected HFFs. FIG. 7A: Expression of Wnt5a/b, Axin1, β-catenin, and actin (control) in non-infected (Mock), and HSV1-infected HFFs (MOI=0.1) treated with monensin (0.1 μM), nigericin (0.1 μM), salinomycin (1 μM) and GCV (10 μM) was determined after 48 h. Representative data from three independent experiments is shown. FIG. 7B: Expression of Wnt5a/b, Axin1, β-catenin, and actin (control) in non-infected (Mock), and HSV1-infected HFFs (MOI=0.1) treated with monensin (0.2 μM), nigericin (0.2 μM) and salinomycin (2 μM) and GCV (10 μM) was determined after 48 h. Representative data from three independent experiments is shown.
Cell lysates were quantified for protein content using bicinchoninic acid (BCA) protein assay kit (Pierce Chemical, Rockford, Ill.). Equivalent amount of proteins were mixed with an equal volume of 2× sample buffer (125 mM Tris-HCL, pH 6.8, 4% SDS, 20% glycerol and 5% β-mercaptoethanol) and boiled at 100° C. for 10 min (except for Wnt and pWnt detection for which samples were not boiled). Denatured proteins were resolved in Tris-glycine polyacrylamide gels (10-12%) and transferred to polyvinylidine difluoride (PVDF) membranes (Bio-Rad Laboratories, Hercules, Calif.) by electroblotting. Membranes were incubated in blocking solution [5% non-fat dry milk and 0.1% Tween-20 in PBS (PBST)] for 1 hr, washed three times with PBST, and incubated with appropriately diluted primary antibodies at 4° C. overnight. Membranes were washed with PBST and incubated with horseradish peroxidase-conjugated secondary antibodies in PBST for 1 hr at room temperature. Following washing with PBST, protein bands were visualized by chemiluminescence using SuperSignal West Dura and Pico reagents (Pierce Chemical, Rockford, Ill.). The following antibodies were used for detection of CMV proteins: mouse anti-IE1 and IE2, (MAb810); mouse anti-beta-actin antibody (Millipore, Billerica, Mass.); mouse anti-UL44 (Santa Cruz biotechnology Santa Cruz, Calif.); mouse anti-pp65 (Vector laboratories, Burlingame, Calif.); horseradish peroxidase (HRP)-conjugated anti-rabbit IgG (Cell Signaling Technology, Beverly, Mass.); and HRP-conjugated anti-mouse IgG, (GE Healthcare, Waukesha, Wis.). The following antibodies were used for detection of proteins in the Wnt pathway: anti-Wnt5a/b, Wnt, phospho-Wnt, Dvl2, Dvl3 and axin1 (Cell Signaling), β-catenin (E-5) (Santa Cruz biotechnology).
In general terms: A western blot detects proteins with antibodies after separation by electrophoresis.

Data set [9] concerns HCMV. Briefly: HCMV yield reduction (infectious virus released into medium, plaques). It counts as cell-based, Human Cytomegalovirus (HCMV).
A further data set relates to HSV2 clinical isolates. In words: HSV2 plaque assay in Vero cells. It counts as cell-based. Conditions: read-out: HSV2 EC50 (μM) Plaque Number (Vero).
The subject of a further data set is HSV1 clinical isolates. In words: HSV1 plaque assay in Vero cells. Format: cell-based. Conditions: read-out: HSV1 EC50 (μM) Plaque Number (Vero).

Where two headings read alike, the source gives them in different places. Where only a bound is given, the exact number is not on record here.

On to `Nc1nc(O)c2ncn(COC(CO)CO)c2n1` [GCV, ganciclovir], for which the CC50 in the data set “in vitro [1]” and in the data set “in vitro [2]” was more than 100000 nM throughout. Further, the half-maximal effective concentration (EC50) in data set [3] turned out to be 7600 nM; in data set [6] it was 2.7 ± 0.1 µM. The compound also returned a CC50 at 3 days in “in vitro [4]” of 247000 ± 33400 nM. In the data set on HCMV [5], the “reversibility of HCMV inhibition” value is listed as “fully reversible”. Further, in data set [6], the “SI (selectivity index)” value turned out to be 96 ± 14.
In the case of `CC[C@@H](C(=O)[C@@H](C)[C@@H](O)[C@H](C)[C@@H]1O[C@@H]([C@@H](CC)C(=O)O)CC[C@@H]1C)[C@H]1O[C@]2(C=C[C@@H](O)[C@]3(CC[C@@](C)([C@H]4CC[C@](O)(CC)[C@H](C)O4)O3)O2)[C@H](C)C[C@@H]1C` [Salinomycin, salinomycin], the EC50 in [7] amounted to 0.6 ± 0.1 µM. Moreover, in data set [8], the “expression of Wnt 5a/b in HSV1-infected HFFs” value is “inhibition”, the “expression of axin 1 in HSV1-infected HFFs” value is recorded as “did not reduce” and the “expression of β-catenin in HSV1-infected HFFs” value is recorded as “did not reduce”. Besides, the CC50 at 3 days in “in vitro [4]” was 28400 ± 5900 nM. Besides, the “infectious virus released into the medium (yield reduction), plaques” value with HCMV [9] (infected HFFs treated at 1 μM) is recorded as “complete absence of plaques”. Further, in the data set on HCMV [5], the “reversibility of HCMV inhibition” value is recorded as “fully reversible”. In addition, in data set [6], the “SI (selectivity index)” value is recorded as 143 ± 18 and the 50% effective concentration (EC50) came to 0.2 ± 0.01 µM. Further, in the data set with HSV2 clinical isolates (Human alphaherpesvirus 2, Vero, 48 h), the half-maximal effective concentration (EC50) stood at 0.07 ± 0.03 µM. The EC50 in the data set on HSV1 clinical isolates (Human alphaherpesvirus 1, Vero, 48 h) was 0.58 ± 0.07 µM.
For the compound `CC[C@@]1([C@@H]2O[C@@H]([C@H]3O[C@@](O)(CO)[C@H](C)C[C@@H]3C)C[C@@H]2C)CC[C@H]([C@]2(C)CC[C@]3(C[C@H](O)[C@@H](C)[C@@H]([C@@H](C)[C@@H](OC)[C@H](C)C(=O)O)O3)O2)O1` [Monensin], the EC50 in data set [7] came out at 0.08 µM. For the same compound, in data set [8], the “expression of Wnt 5a/b in HSV1-infected HFFs” value was “inhibition”, the “expression of axin 1 in HSV1-infected HFFs” value is on record as “did not reduce” and the “expression of β-catenin in HSV1-infected HFFs” value is reported as “did not reduce”. For the same compound, the CC50 at 3 days in the data set “in vitro [4]” stood at 3370 ± 520 nM. Further, in the data set with HCMV [9] (infected HFFs treated at 0.1 μM), the “infectious virus released into the medium (yield reduction), plaques” value is listed as “complete absence of plaques”. Besides, the “reversibility of HCMV inhibition” value in the data set with HCMV [5] is “weak irreversible inhibition”. Also, in data set [6], the “SI (selectivity index)” value was determined as 138 ± 14 and the concentration for a half-maximal effect (EC50) worked out at 0.02 µM. In the data set with HSV2 clinical isolates (Human alphaherpesvirus 2, 48 h, Vero cells, 200 PFU/well, plaques counted after 2 days), the EC50 worked out at 0.34 ± 0.04 µM. The EC50 in the data set on HSV1 clinical isolates (Human alphaherpesvirus 1, 48 h, Vero cells, 200 PFU/well, plaques counted after 2 days) is 1.6 ± 0.14 µM.
